Structures can show the parent of a compound that is named as a salt.
These molecules were tested on SMN protein (assay: cellular SMN ELISA (SMN protein elevation)). Settings: myoblast cell line derived from SMNdelta7 mouse model; 24 hours compound treatment; concentration range 100 pM-10 uM.
Assay type: cell-based
Description: A cellular SMN ELISA was used to measure the effects of low molecular weight compounds on SMN protein elevation. Cells from a myoblast cell line derived from the SMNdelta7 mouse model (kind gift from Steve Burden, NYU) were seeded into a 384-well plate at a density of 3000 cells/well and treated with compounds for 24 hours. ELISA capture plates were prepared by coating 384-well plates (Immulon 4HBX) with 0.5 ug/mL of anti-SMN mAb (BD Science, Catalog number 610647) at 4° C. overnight. The plates were washed 5 times with 110 uL of PBS-Tween (0.05% Tween-20, PBST), blocked with 100 uL of 1% BSA in PBST for 2 hours and washed (5 times) with 100 uL of PBST. After 24 hours of compound treatment cells were lysed in a modified RIPA-buffer, on ice for 1 hour. 20 uL of lysate and 20 uL of 1% BSA were then added to the ELISA capture plates and incubated at 4° C. overnight. Plates were washed (5 times) with PBST and then incubated with 1:100 dilution of primary rabbit anti-SMN polyclonal antibody (Santa cruz, Catalog number SC-15320) at room temperature for 1 hour and subsequently washed (5 times) with 110 uL of PBST. This was followed by addition of 1:100 Goat anti-Rabbit IgG-HRP linked (Cell Signaling, Catalog number 7074) secondary antibody for 1 hour. Plates were then washed with PBST and incubated with 40 uL TMB substrate (Cell Signaling, Catalog number 7004L) at room temperature for 1-10 minutes with shaking. The reaction was stopped by addition of 40 uL of stop solution (Cell signaling, Catalog number 7002L) and absorption was measured at 450 nm. Data was reported as fold activation over DMSO control and EC50. ELISA assay condition: compound concentration range 100 pM-10 uM.
With `COc1cc(-c2ncc(C)o2)cc(O)c1-c1nnc(N(C)C2CC(C)(C)NC(C)(C)C2)s1` [Example 28, 3-Methoxy-2-(5-(methyl(2,2,6,6-tetramethylpiperidin-4-yl)amino)-1,3,4-thiadiazol-2-yl)-5-(5-methyloxazol-2-yl)phenol] the EC50 was 20 nM and the “SMN Activity Fold (fold activation over DMSO control)” value (“SMN Activity Fold” for short) was 2.70 fold. With `COc1cc(-n2cccn2)ccc1-c1nnc(C2=CCNCC2)s1` [Example 29, 2-(2-Methoxy-4-(1H-pyrazol-1-yl)phenyl)-5-(1,2,3,6-tetrahydropyridin-4-yl)-1,3,4-thiadiazole] the EC50 was 879 nM and the “SMN Activity Fold” value was 2.46 fold. For `Oc1cc(-n2cccn2)ccc1-c1nnc(N2CCNCC2)s1` [Example 30, 2-(5-(piperazin-1-yl)-1,3,4-thiadiazol-2-yl)-5-(1H-pyrazol-1-yl)phenol], the EC50 was 6560 nM and the “SMN Activity Fold” value was 1.98 fold. In the case of `COc1cc2ncccc2cc1-c1nnc(N(C)C2CC(C)(C)NC(C)(C)C2)s1` [Example 31, 5-(7-Methoxyquinolin-6-yl)-N-methyl-N-(2,2,6,6-tetramethylpiperidin-4-yl)-1,3,4-thiadiazol-2-amine], the EC50 is reported as 113 nM and the “SMN Activity Fold” value is reported as 2.43 fold. In the case of `CN(c1nnc(-c2cc3cccnc3cc2O)s1)C1CC(C)(C)NC(C)(C)C1` [Example 32, 6-(5-(Methyl(2,2,6,6-tetramethylpiperidin-4-yl)amino)-1,3,4-thiadiazol-2-yl)quinolin-7-ol], the EC50 is reported as 256 nM and the “SMN Activity Fold” value is reported as 2.48 fold. In the case of `COc1cc(C#N)ccc1-c1nnc(N(C)C2CC(C)(C)NC(C)(C)C2)s1` [Example 33, 3-methoxy-4-(5-(methyl(2,2,6,6-tetramethyl-piperidin-4-yl)amino)-1,3,4-thiadiazol-2-yl) benzonitrile], the EC50 is reported as 1040 nM and the “SMN Activity Fold” value is reported as 2.16 fold. With `CN(c1nnc(-c2ccc(C#N)cc2F)s1)C1CC(C)(C)NC(C)(C)C1` [Example 34, 3-fluoro-4-(5-(methyl(2,2,6,6-tetramethylpiperidin-4-yl)amino)-1,3,4-thiadiazol-2-yl)benzonitrile] the EC50 was greater than 10000 nM and the “SMN Activity Fold” value was 2.32 fold. With `COC(=O)c1ccc(-c2nnc(N(C)C3CC(C)(C)NC(C)(C)C3)s2)c(F)c1` [Example 35, methyl 3-fluoro-4-(5-(methyl(2,2,6,6-tetramethyl-piperidin-4-yl)amino)-1,3,4-thiadiazol-2-yl) benzoate] the EC50 was 864 nM and the “SMN Activity Fold” value was 2.81 fold. In the case of `CNc1ccn(-c2ccc(-c3nnc(N(C)C4CC(C)(C)NC(C)(C)C4)s3)c(OC)c2)n1` [Example 36, 5-(2-methoxy-4-(3-(methylamino)-1H-pyrazol-1-yl)phenyl)-N-methyl-N-(2,2,6,6-tetramethyl-piperidin-4-yl)-1,3,4-thiadiazol-2-amine], the EC50 is reported as 163 nM and the “SMN Activity Fold” value is reported as 2.15 fold. For `COc1cc2nc(C#N)ccc2cc1-c1nnc(N(C)C2CC(C)(C)NC(C)(C)C2)s1` [Example 37, 7-methoxy-6-(5-(methyl(2,2,6,6-tetramethyl-piperidin-4-yl)amino)-1,3,4-thiadiazol-2-yl) quinoline-2-carbonitrile], the EC50 was 78 nM and the “SMN Activity Fold” value was 2.19 fold. `COc1cc(-c2ccn(C)c(=O)c2)ccc1-c1nnc(OC2CC(C)(C)NC(C)(C)C2)s1` [Example 38, 4-(3-methoxy-4-(5-((2,2,6,6-tetramethyl-piperidin-4-yl)oxy)-1,3,4-thiadiazol-2-yl)phenyl)-1-methylpyridin-2(1H)-one] was tested, and the EC50 was 1520 nM and the “SMN Activity Fold” value was 2.12 fold. With `CN(c1nnc(-c2ccc(-c3ccn(C)c(=O)c3)cc2Cl)s1)C1CC(C)(C)NC(C)(C)C1` [Example 39, 4-(3-chloro-4-(5-(methyl(2,2,6,6-tetramethyl-piperidin-4-yl)amino)-1,3,4-thiadiazol-2-yl)phenyl)-1-methylpyridin-2(1H)-one] the EC50 was 50 nM and the “SMN Activity Fold” value was 2.31 fold. For `CN(c1nnc(-c2ccc(-c3cn[nH]c3)cc2Cl)s1)C1CC(C)(C)NC(C)(C)C1` [Example 40, 5-(2-chloro-4-(1H-pyrazol-4-yl)phenyl)-N-methyl-N-(2,2,6,6-tetramethylpiperidin-4-yl)-1,3,4-thiadiazol-2-amine], the EC50 was 34 nM and the “SMN Activity Fold” value was 2.55 fold. For `CN(c1nnc(-c2ccc(-c3cnn4c3CCCC4)cc2Cl)s1)C1CC(C)(C)NC(C)(C)C1` [Example 41, 5-(2-chloro-4-(4,5,6,7-tetrahydropyrazolo[1,5-a]pyridin-3-yl)phenyl)-N-methyl-N-(2,2,6,6-tetramethylpiperidin-4-yl)-1,3,4-thiadiazol-2-amine], the EC50 was 507 nM and the “SMN Activity Fold” value was 2.44 fold. With `CN(c1nnc(-c2ccc(-c3cnn(C)c3)cn2)s1)C1CC(C)(C)NC(C)(C)C1` [Example 42, N-methyl-5-(5-(1-methyl-1H-pyrazol-4-yl)pyridin-2-yl)-N-(2,2,6,6-tetramethylpiperidin-4-yl)-1,3,4-thiadiazol-2-amine. Hydrochloride salt] the EC50 was 675 nM and the “SMN Activity Fold” value was 2.32 fold. In the case of `Cn1cc(-c2ccc(-c3nnc(OC4CC(C)(C)NC(C)(C)C4)s3)c(Cl)c2)cn1` [Example 43, 2-(2-chloro-4-(1-methyl-1H-pyrazol-4-yl)phenyl)-5-((2,2,6,6-tetramethylpiperidin-4-yl)oxy)-1,3,4-thiadiazole], the EC50 is reported as 446 nM and the “SMN Activity Fold” value is reported as 2.28 fold. In the case of `COc1ccc(-c2ccc(-c3nnc(N(C)C4CC(C)(C)NC(C)(C)C4)s3)c(Cl)c2)cn1` [Example 44, 5-(2-chloro-4-(6-methoxypyridin-3-yl)phenyl)-N-methyl-N-(2,2,6,6-tetramethylpiperidin-4-yl)-1,3,4-thiadiazol-2-amine], the EC50 is reported as 4920 nM and the “SMN Activity Fold” value is reported as 2.26 fold. With `CN(c1nnc(-c2ccc(-c3ccc(N)nc3)cc2F)s1)C1CC(C)(C)NC(C)(C)C1` [Example 45, 5-(4-(6-aminopyridin-3-yl)-2-fluorophenyl)-N-methyl-N-(2,2,6,6-tetramethylpiperidin-4-yl)-1,3,4-thiadiazol-2-amine] the EC50 was 163 nM and the “SMN Activity Fold” value was 2.26 fold. In the case of `Cc1cc(-c2ccc(-c3nnc(N(C)C4CC(C)(C)NC(C)(C)C4)s3)c(F)c2)[nH]n1` [Example 46, 5-(2-fluoro-4-(3-methyl-1H-pyrazol-5-yl)phenyl)-N-methyl-N-(2,2,6,6-tetramethylpiperidin-4-yl)-1,3,4-thiadiazol-2-amine], the EC50 is reported as 122 nM and the “SMN Activity Fold” value is reported as 2.32 fold. For `CN(c1nnc(-c2ccc(-c3ccn[nH]3)cc2F)s1)C1CC(C)(C)NC(C)(C)C1` [Example 47, 5-(2-fluoro-4-(1H-pyrazol-5-yl)phenyl)-N-methyl-N-(2,2,6,6-tetramethylpiperidin-4-yl)-1,3,4-thiadiazol-2-amine], the EC50 was 152 nM and the “SMN Activity Fold” value was 2.29 fold. With `CN(c1nnc(-c2ccc(-c3cn[nH]c3)c(F)c2F)s1)C1CC(C)(C)NC(C)(C)C1` [Example 48, 5-(2,3-difluoro-4-(1H-pyrazol-4-yl)phenyl)-N-methyl-N-(2,2,6,6-tetramethylpiperidin-4-yl)-1,3,4-thiadiazol-2-amine] the EC50 was 33 nM and the “SMN Activity Fold” value was 3.04 fold.

From US9040712B2, “Thiadiazole analogs thereof and methods for treating SMN-deficiency-related-conditions” (NOVARTIS AG, priority 2013, dated 2015)
